Measurements reported in publication PMC12119672, “Development and evaluation of [^11C]DPA-813 and [^18F]DPA-814: novel TSPO PET tracers insensitive to human single nucleotide polymorphism rs6971” (European Journal of Nuclear Medicine and Molecular Imaging, 2025).
Where “and” joins values, the source holds several entries; their conditions need not be identical. Equal values may be shown once.

Key:
[1] = system: EAE rat model (spinal cord); experiment: PET imaging in the EAE rat model; assay type: in vivo; settings: for higher difference EAE vs control compared with the fluorinated compound: [11C]DPA-813 vs [18F]DPA-814, [11C]DPA-713 vs [18F]DPA-714; for higher uptake (AUC of time activity curve) in the spinal cord of EAE rats compared to CFA control: dynamic PET 60 min, peak of clinical symptoms
rat TSPO = biological target: T1, rat TSPO (Rattus norvegicus, UniProt P16257); experiment: Competitive binding to rat TSPO vs [3H]PK 11195 (Eurofins assay #226700, rat heart membranes); settings: vs DPA-713 / DPA-714
T1 construct: Heart of male Wistar derived rats weighing 175 ± 25 g are used to prepare peripheral benzodiazepine membrane receptors [TSPO]; tissue Eurofins Panlabs Discovery Services assay #226700; host or cells: rat heart (male Wistar derived)
Description: Binding affinities (Ki) to wild-type (WT) and A147T human TSPO were assessed using a previously published method. HEK-293T cells were stably transfected with WT and A147T TSPO. Membranes were isolated from each cell line using an Ultra-Turrax hand-held homogeniser. These cells have been previously validated as an in vitro model for low- and high-affinity TSPO binding. […] Non-specific binding was determined using a saturating concentration (1 µM) of non-tritiated PK 11195. This non-specific binding contributed less than 10% of total binding. Reactions were halted by filtering through a 96-well glass-fibre filter plate (Millipore), followed by eight washes with ice-cold 50 mM Tris HCl. Microscint 0 was added to the plate and resultant radioactivity-related photons were collected by a Microbeta 2450 (PerkinElmer). Ki values were fit to a competition binding curve fit on non-specific binding-corrected data using GraphPad Prism 10.0 (GraphPad). Results are presented as mean ± standard error of the mean (SEM) from at least three independent experiments. Binding affinities (Ki) to rat TSPO were measured in duplicate by Eurofins Panlabs Discovery Services (assay #226700) (Supplementary Fig. 12). Single-dose (10 µM) off-target in vitro screening was performed in duplicate by Eurofins Panlabs Discovery Services (Supplementary Table 5).
Supplementary Figure 12 Dose-response curves and binding affinities of DPA-813 and DPA-814 showing competitive binding to rat TSPO vs [^3H]PK 11195. Method from Eurofins: Heart of male Wistar derived rats weighing 175 ± 25 g are used to prepare peripheral benzodiazepine membrane receptors [TSPO] in modified Tris-HCl buffer pH 7.5. A 0.25 mg aliquot is incubated with 0.3 nM [^3H]PK 11195 for 15 minutes at 25 °C. Non-specific binding is estimated in the presence of 100 μM Dipyridamole. Membranes are filtered and washed, the filters are then counted to determine [^3H]PK 11195 specifically bound.

[2] = Ex vivo biodistribution in wild-type rats; design: species or system rat; settings: i.v.
Description: Wistar/RccHan (WIST) rats from Inotiv, the Netherlands, received intravenous injections via a tail vein catheter of either [^11C]DPA-813 (30–50 MBq) or [^18F]DPA-814 (20–30 MBq). The rats were euthanized at 5, 15, and 45 min post-injection (n = 4 per time point). Blood, heart, lungs, liver, spleen, kidney, urine, bone, brain, duodenum, small intestine, skin, and muscle were collected, weighed, and their radioactivity measured using a Wizard Gamma counter 1470 or 2480 (Wallac/PerkinElmer, Waltham, MA, USA). Entire organs were collected, except for larger organs like the liver and lungs, where only a portion was dissected. The radioactivity uptake in each organ was expressed as the percentage of the injected dose per gram of tissue (%ID/g).

[3] = Ex vivo metabolite analysis (plasma and brain) in wild-type rats; design: species or system rat; settings: i.v.
Description: Metabolite analysis was conducted following the method outlined in a previous study. Wistar/RccHan (WIST) rats (Inotiv, the Netherlands) received intravenous injections of either [^11C]DPA-813 (30–50 MBq) or [^18F]DPA-814 (20–30 MBq). Rats were euthanized at 5, 15, and 45 min post-injection (n = 4 per time point). Plasma was separated from blood then processed through a C18 Sep-Pak (Waters, Milford, MA, USA). After washing with 3 mL of water to isolate the polar fraction, the non-polar fraction was eluted using 2 mL of methanol and 1 mL of water and subsequently analyzed by HPLC. The brain tissue was collected and homogenized in a mixture of MeCN and H2O (50/50, 4 mL) before centrifugation (5 min, 4000 rpm, 20 °C, Hettich Universal 32). The obtained supernatant was separated from the precipitate and analyzed via HPLC. Analytical HPLC was performed using a Dionex UltiMate 3000 HPLC system equipped with Chromeleon software (version 6.8), utilizing a Gemini C18 5-µm (10 × 250 mm) column (Phenomenex, Torrance, CA, USA). All fractions were assessed for radioactivity using a Wizard Gamma counter 1470 or 2480 (Wallac/PerkinElmer, Waltham, MA, USA).

TSPO in human MS tissues = experiment: Autoradiography on genotyped human MS brain tissue (HAB, MAB, LAB); assay type: binding
Excerpt: Brain tissues from MS patients (n = 7) were used in this study and were obtained from the MS centre of the Amsterdam University Medical Centers (AUMC). For some patient material, several brain tissues were available. The MS centre received permission from the Ethical Committee of the AUMC (Amsterdam, The Netherlands) to perform autopsies for tissue use and access to medical records for research purposes. All patients and controls, or their next of kin, had given informed consent for autopsy and use of brain tissue for research purposes.
TSPO rs6971 SNP was determined with a Taqman assay (C_2512465_20, ThermoFisher Scientific, The Netherlands). DNA was isolated from human MS brain tissue cryosections using a QIAmp mini kit from Qiagen according to the manufacturer’s recommendation. The concentration of the isolated DNA was determined on a nanodrop (NanoVue Plus, Biochrom). DNA concentration ranged from 45 to 246 µg/mL. QPCR was performed on a QuantStudio (Applied Biosystems, The Netherlands). Synthetic DNA (300 bp) for the two TSPO SNP alleles, rs6971-A, and rs6971-G, was used as a control for the Taqman assay. DNA samples were diluted 1/100 in milliQ water, and 4.5 µL was used for the QPCR. Control DNA sequences were reconstituted in 10 ng/mL in milliQ water. The final QPCR solution contained 5 µL TaqPath proAmp master mix (ThermoFisher Scientific, The Netherlands), 0.5 µL Taqman SNP, and 4.5 µL DNA. Results of the Taqman assay are summarised in Supplementary Tables 4 and Supplementary Fig. 2.
Human MS tissue cryosections (20 μm) were mounted on glass slides, air-dried, and stored at − 80 °C until needed. Prior to use, the sections were washed three times in PBS for 5 min each, then dried under an airflow. […] For blocking experiments, tissue sections were co-incubated with PK 11195 (10 µM) and the tracer. After incubation, sections were washed for 90 s three times each in ice-cold PBS and then dipped in deionized water twice. The sections were air-dried and exposed to a phosphor screen BAS-IP SR 2025 (General Electric, Eindhoven, The Netherlands). Phosphor screens were subsequently imaged using a Typhoon FLA 7000 imager (General Electric, Eindhoven, The Netherlands), and signal intensity was quantified using ImageLab software (BioRad, Lunteren, The Netherlands).

## CCN(CC)C(=O)Cc1c(-c2ccc(O[11CH3])cc2)nn2c(C)cc(C)nc12 [[^11C]DPA-713, reference compound]
[1]
  higher difference EAE vs control compared with the fluorinated compound: 2.5 folds
  higher uptake (AUC of time activity curve) in the spinal cord of EAE rats compared to CFA control: 67%

## CCN(CC)C(=O)Cc1c(-c2ccc(OCC[18F])cc2)nn2c(C)cc(C)nc12 [[^18F]DPA-714, reference compound]
[1]
  higher uptake (AUC of time activity curve) in the spinal cord of EAE rats compared to CFA control: 27%

## Cc1cc(C)n2nc(-c3ccc(O[11CH3])cc3)c(CC(=O)N(C)c3ccccc3)c2n1 [[^11C]DPA-813]
Rat TSPO
  higher affinity to rat TSPO compared to the parent compound: 24 fold
[2]; 5 min post-injection
  Biodistribution, Blood: 0.31 ± 0.1 %ID/g
  Biodistribution, Bone: 0.28±0.1 %ID/g
  Biodistribution, Brain: 0.41 ± 0.1 %ID/g
  Biodistribution, Duodenum: 1.44±0.2 %ID/g
  Biodistribution, Heart: 3.70±0.5 %ID/g
  Biodistribution, Kidney: 3.80±0.5 %ID/g
  Biodistribution, Liver: 1.42±0.4 %ID/g
  Biodistribution, Lungs: 29.84±3. %ID/g
  Biodistribution, Skin: 0.09±0.1 %ID/g
  Biodistribution, Small intestine: 1.04±0.4 %ID/g
  Biodistribution, Tail: 1.30±0.6 %ID/g
  Biodistribution, Urine: 0.03±0.0 %ID/g
  Biodistribution, muscle: 0.07±0.0 %ID/g
  Biodistribution, spleen: 4.62±0.6 %ID/g
[2]; 15 min post-injection
  Biodistribution, Blood: 0.34±0.1 %ID/g
  Biodistribution, Bone: 0.35±0.1 %ID/g
  Biodistribution, Brain: 0.39±0.0 %ID/g
  Biodistribution, Duodenum: 1.37±0.1 %ID/g
  Biodistribution, Heart: 4.57±0.2 %ID/g
  Biodistribution, Kidney: 4.31±0.5 %ID/g
  Biodistribution, Liver: 1.69 ± 0.2 %ID/g
  Biodistribution, Lungs: 24.03±7. %ID/g
  Biodistribution, Skin: 0.10±0.0 %ID/g
  Biodistribution, Small intestine: 0.77±0.3 %ID/g
  Biodistribution, Tail: 1.18±0.1 %ID/g
  Biodistribution, Urine: 0.02±0.0 %ID/g
  Biodistribution, muscle: 0.10±0.0 %ID/g
  Biodistribution, spleen: 5.88±1.8 %ID/g
[2]; 45 min post-injection
  Biodistribution, Blood: 0.27 ± 0.01 %ID/g
  Biodistribution, Bone: 0.26±0.1 %ID/g
  Biodistribution, Brain: 0.34 ± 0.1 %ID/g
  Biodistribution, Duodenum: 1.51±0.1 %ID/g
  Biodistribution, Heart: 4.28±0.3 %ID/g
  Biodistribution, Kidney: 4.20±0.6 %ID/g
  Biodistribution, Liver: 1.68±0.3 %ID/g
  Biodistribution, Lungs: 16.13±3.5 %ID/g
  Biodistribution, Skin: 0.12±0.04 %ID/g
  Biodistribution, Small intestine: 1.18±0.2 %ID/g
  Biodistribution, Tail: 1.33±0.7 %ID/g
  Biodistribution, Urine: 0.23±0.3 %ID/g
  Biodistribution, muscle: 0.12±0.03 %ID/g
  Biodistribution, spleen: 6.66±1.2 %ID/g
[3]; 5 min post-injection
  Brain, Parent (intact tracer): 99.7 ± 0.1%
  Plasma, Parent (Intact tracer): 87.9 ± 2.4%
[3]; 15 min post-injection
  Brain, Parent (intact tracer): 99.6 ± 0.3%
  Plasma, Parent (Intact tracer): 85.5 ± 3.2%
[3]; 45 min post-injection
  Brain, Parent (intact tracer): 98.9 ± 0.9%
  Plasma, Parent (Intact tracer): 67.2 ± 2.9% and 67%
TSPO in human MS tissues; HAB human MS tissue
  ratio of the binding quantification [11C]DPA-813/[11C]DPA-713: 1 ± 0.2
TSPO in human MS tissues; LAB human MS tissue
  ratio of the binding quantification [11C]DPA-813/[11C]DPA-713: 3
TSPO in human MS tissues; MAB human MS tissue
  ratio of the binding quantification [11C]DPA-813/[11C]DPA-713: 1.6 ± 0.1
[1]
  higher difference EAE vs control compared with the fluorinated compound: 3 folds
  higher uptake (AUC of time activity curve) in the spinal cord of EAE rats compared to CFA control: 64%
